# Measured values from US20100152197A1, “(4-TERT-BUTYLPIPERAZIN-2-YL)(PIPERAZIN-1-YL)METHANONE-N-CARBOXAMIDE DERIVATIVES” (ASTRAZENECA AB, priority 2008, published 2010).
# Target: T1, CCR2 (Homo sapiens, UniProt P41597)
# T1 construct: cell membranes containing 6×10^6cells/ml equivalent; endogenous in cells; host or cells: THP1 cells (membrane fragments)
# T1 sequence (P41597 1-360 isoform P41597-2): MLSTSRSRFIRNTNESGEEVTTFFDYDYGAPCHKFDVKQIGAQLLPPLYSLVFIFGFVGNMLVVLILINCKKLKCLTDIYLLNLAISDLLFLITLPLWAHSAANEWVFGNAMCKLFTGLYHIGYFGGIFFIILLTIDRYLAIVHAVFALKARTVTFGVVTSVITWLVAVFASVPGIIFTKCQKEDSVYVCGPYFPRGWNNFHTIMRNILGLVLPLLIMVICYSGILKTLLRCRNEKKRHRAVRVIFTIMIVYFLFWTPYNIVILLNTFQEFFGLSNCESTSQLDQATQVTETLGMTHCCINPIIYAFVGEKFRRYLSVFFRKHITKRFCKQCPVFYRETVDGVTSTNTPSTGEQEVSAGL
# Test: hMCP-1 THP1 receptor-binding assay (125I-labeled MCP-1, SPA, THP1 cell membranes)
# Settings: 250 pM 125I-labeled MCP-1, THP1 cell membranes, room temperature 16 hours; read-out: CCR2 Binding pIC50 (converted)
# Method: hMCP-1 THP1 Receptor-Binding Assay
# i) Preparation of Membrane Fragments
# THP1 cells were grown in RPMI (Sigma) supplemented with 10% foetal calf serum, 2 mM glutamine (Gibco), 100 units/ml Penicillin and 100 μg/ml Streptomycin (Invitrogen). Membrane fragments were prepared using cell lysis/differential centrifugation methods as described previously (Siciliano et al., 1990, J. Biol. Chem., 265, 19658). Protein concentration was estimated by BCA protein assay (Pierce, Rockford, Ill.) according to the manufacturer's instructions.
# ^125I-labeled MCP-1 was prepared using Bolton and Hunter conjugation (Bolton et al., 1973, Biochem. J., 133, 529; Amersham International plc).
# Test compounds were dissolved in DMSO and further diluted in assay buffer (50 mM HEPES, 1 mM CaCl2, 5 mM MgCl2, 1 mM EDTA, 0.03% BSA, pH 7.2) to give a range of concentrations starting with a top final concentration of up to 10 μM. […] Incubations contained 250 pM ^125I-labeled MCP-1 (GE Healthcare), 0.5 mg Scintillation proximity assay beads (GE Healthcare RPNQ001) and cell membranes containing 6×10^6cells/ml equivalent. Non-specific binding was determined by the inclusion of 10 μM of a known CCR2b antagonist in the place of test compound. Total binding was determined in the presence of 1% DMSO without compound. Incubations were performed in sealed optiplates and kept at room temperature for 16 hours after which the plates were counted on a Packard TopCount (Packard TopCount™). Dose-response curves were generated using “in-house” data analysis package incorporating Origin software to determine IC50 values. Percent inhibitions were calculated for single concentrations of compound by using the following formula 100−((compound binding minus non-specific binding)/(total binding minus non-specific binding)×100).
row,Compound,IC50 [nM]
1,"CC(C)(C)N1CCN[C@@H](C(=O)N2CCN(C(=O)Nc3cccc(C(F)(F)F)c3)CC2)C1 [Example 1, 4-[(2R)-4-tert-butylpiperazine-2-carbonyl]-N[3(trifluoromethyl)phenyl]piperazine-1-carboxamide]",3.09
2,"CC(C)(C)N1CCN[C@@H](C(=O)N2CCN(C(=O)Nc3cccc(Cl)c3)CC2)C1 [Example 2, 4-[(2R)-4-tert-butylpiperazine-2-carbonyl]-N-(3-chlorophenyl)piperazine-1-carboxamide]",2.57
3,"CC(C)(C)N1CCN[C@@H](C(=O)N2CCN(C(=O)Nc3cccc(SC(F)(F)F)c3)CC2)C1 [Example 3, 4-[(2R)-4-tert-butylpiperazine-2-carbonyl]-N-[3-(trifluoromethylsulfanyl)phenyl]piperazine-1-carboxamide]",2.82
4,"CC(C)(C)N1CCN[C@@H](C(=O)N2CCN(C(=O)Nc3ccc(Br)cc3)CC2)C1 [Example 4, N-(4-bromophenyl)-4-[(2R)-4-tert-butylpiperazine-2-carbonyl]piperazine-1-carboxamide]",6.76
5,"CC(C)(C)N1CCN[C@@H](C(=O)N2CCN(C(=O)Nc3ccc(F)c(C(F)(F)F)c3)CC2)C1 [Example 5, 4-[(2R)-4-tert-butylpiperazine-2-carbonyl]-N-[4-fluoro-3(trifluoromethyl)phenyl]piperazine-1-carboxamide]",2
6,"Cc1ccc(NC(=O)N2CCN(C(=O)[C@H]3CN(C(C)(C)C)CCN3)CC2)cc1C(F)(F)F [Example 6, 4-[(2R)-4-tert-butylpiperazine-2-carbonyl]-N-[4-methyl-3-(trifluoromethyl)phenyl]piperazine-1-carboxamide]",1.82
7,"CC(C)(C)N1CCN[C@@H](C(=O)N2CCN(C(=O)Nc3ccc(F)c(Cl)c3)CC2)C1 [Example 7, 4-[(2R)-4-tert-butylpiperazine-2-carbonyl]-N-(3-chloro-4-fluorophenyl)piperazine-1-carboxamide]",8.51
8,"CC(C)(C)N1CCN[C@@H](C(=O)N2CCN(C(=O)Nc3ccc(C#N)c(C(F)(F)F)c3)CC2)C1 [Example 8, 4-[(2R)-4-tert-butylpiperazine-2-carbonyl]-N-[4-cyano-3-(trifluoromethyl)phenyl]piperazine-1-carboxamide]",7.24
9,"CC(C)(C)N1CCN[C@@H](C(=O)N2CCN(C(=O)Nc3ccc(Cl)c(F)c3)CC2)C1 [Example 9, 4-[(2R)-4-tert-butylpiperazine-2-carbonyl]-N-(4-chloro-3-fluorophenyl)piperazine-1-carboxamide]",2.57
10,"CC(C)(C)N1CCN[C@@H](C(=O)N2CCN(C(=O)Nc3cccc(OC(F)(F)C(F)F)c3)CC2)C1 [Example 10, 4-[(2R)-4-tert-butylpiperazine-2-carbonyl]-N-[3-(1,1,2,2-tetrafluoroethoxy)phenyl]piperazine-1-carboxamide]",6.76
11,"Cc1cc(NC(=O)N2CCN(C(=O)[C@H]3CN(C(C)(C)C)CCN3)CC2)ccc1Cl [Example 11, 4-[(2R)-4-tert-butylpiperazine-2-carbonyl]-N-(4-chloro-3-methylphenyl)piperazine-1-carboxamide]",2.29
12,"CC(C)(C)N1CCN[C@@H](C(=O)N2CCN(C(=O)Nc3cccc(OCc4ccccc4)c3)CC2)C1 [Example 12, 4-[(2R)-4-tert-butylpiperazine-2-carbonyl]-N-(3-phenylmethoxyphenyl)piperazine-1-carboxamide]",1.82
13,"CC(C)(C)N1CCN[C@@H](C(=O)N2CCN(C(=O)Nc3ccc(OC(F)(F)F)c(Cl)c3)CC2)C1 [Example 13, 4-[(2R)-4-tert-butylpiperazine-2-carbonyl]-N-[3-chloro-4-(trifluoromethoxy)phenyl]piperazine-1-carboxamide]",< 0.871
14,"Cc1nc(NC(=O)N2CCN(C(=O)[C@H]3CN(C(C)(C)C)CCN3)CC2)sc1Br [Example 14, N-(5-bromo-4-methyl-1,3-thiazol-2-yl)-4-[(2R)-4-tert-butylpiperazine-2-carbonyl]piperazine-1-carboxamide]",2.75
15,"CCc1nc(NC(=O)N2CCN(C(=O)[C@H]3CN(C(C)(C)C)CCN3)CC2)sc1Cl [Example 15, 4-[(2R)-4-tert-butylpiperazine-2-carbonyl]-N-(5-chloro-4-ethyl-1,3-thiazol-2-yl)piperazine-1-carboxamide]",< 0.447
16,"Cc1nc(NC(=O)N2CCN(C(=O)[C@H]3CN(C(C)(C)C)CCN3)CC2)sc1Cl [Example 16, 4-[(2R)-4-tert-butylpiperazine-2-carbonyl]-N-(5-chloro-4-methyl-1,3-thiazol-2-yl)piperazine-1-carboxamide]",1.26
17,"CC(C)(C)N1CCN[C@@H](C(=O)N2CCN(C(=O)Nc3nc(C(F)(F)F)c(Cl)s3)CC2)C1 [Example 17, 4-[(2R)-4-tert-butylpiperazine-2-carbonyl]-N-[5-chloro-4-(trifluoromethyl)-1,3-thiazol-2-yl]piperazine-1-carboxamide]",< 0.447
